Assays:
pigs = assay: Experiment C2: oral glucose tolerance test in pigs; assay type: in vivo; details: cross-over, glucose 5 g/kg perorally at 0 and 60 min, glucagon(1-21) 1 mg/kg/h i.v. 0-120 min
Experimental: The effect of glucagon(1-21) on plasma glucose levels was investigated during an oral glucose tolerance test in pigs. 4 pigs were dosed in a cross-over experiment with glucose (5 g/kg) perorally at 0 and 60 minutes + placebo (saline with HSA) or glucagon(1-21) (1 mg/kg/h) from 0 to 120 minutes intravenously. Blood samples were drawn from an ear vein at the times -5, 10, 20, 30, 45, 60, 75, 90, 105, and 120 minutes and plasma glucose was assayed by the hexokinase method. The plasma glucose values are stated in Table V below: […]

rats = assay: Metabolic effects after administration to normally fasted and fed rats in vivo

glucagon-(1-21)-heneicosapeptide (HSQGTFTSDYSKYLDSRRAQD; Glucagon; UniProt P01275 53-73, looked up, fragment) [glucagon(1-21)]
Plasma glucose (pigs; time 10 min): 1.0 mg/mL | Plasma glucose (pigs; time 20 min): 1.4 mg/mL | Plasma glucose (pigs; time 30 min): 1.7 mg/mL | Plasma glucose (pigs; time 45 min): 1.8 mg/mL | Plasma glucose (pigs; time 60 min): 1.9 mg/mL | Plasma glucose (pigs; time 75 min): 1.8 mg/mL | Plasma glucose (pigs; time 90 min): 1.7 mg/mL | Plasma glucose (pigs; time 105 min): 1.7 mg/mL | Plasma glucose (pigs; time 120 min): 2.1 mg/mL | Plasma glucose (pigs; time -5 min): 0.8 mg/mL | metabolic effects (rats): No metabolic effects have been found

— EP0082731A1, “The use of peptides as medicaments” (NOVO INDUSTRI A/S, priority 1981, dated 1983)
